Laboratory results from patent publication US20220280607A1, “Treatment of Heart Defects and Conditions in Pediatric Patients” (University of Pittsburgh - Of the Commonwealth System of …, priority 2019, published 2022).

Tested on: cardiomyocytes of newborn mice
Assay: Mouse pharmacological treatment of newborn mice: binucleated cardiomyocytes, cardiomyocyte endowment, cell cycle activity, heart weight
Assay type: in vivo
Settings: for increase of cardiomyocyte endowment: counting fixation-digested hearts, FIG. 12D
Procedure: […] An equal volume of phosphate buffered saline (PBS) was injected in the control groups.
Isolation of intact cardiomyocytes for quantification: We used a previously validated fixation digestion method to isolate intact cardiomyocytes from fresh or frozen myocardium for quantification (Mollova, M., et al. “Cardiomyocyte proliferation in human heart growth” Proceedings of the National Academy of Sciences January 2013, 110 (4) 1446-1451; DOI: 10.1073/pnas.1214608110). The myocardium was cut into 1 cubic millimeter (mm^3) sized tissue blocks followed by incubation with 3.7% formaldehyde at room temperature for 1.8 hours. After being washed with PBS 3 times to remove the formaldehyde, the fixed tissue blocks were digested in enzyme solution (Collagenase B, 3.6 mg/ml; Collagenase D, 4.8 mg/ml) at 37 degrees Celsius (° C.), with 10 revolutions per minute (rpm) overhead rotation. The digested cells were collected every 24 hours from the supernatant, and the undigested tissue was re-suspended with fresh enzyme solution until all of the tissue pieces were digested. All of the digested cells from the same heart were then combined and allowed to settle to the bottom of the tube. The cell pellet was collected for further study.
Counting of cardiomyocytes after fixation and digestion: All fractions from the digestion of a heart were combined in 2 milliliters (mL) PBS and cardiomyocytes were quantified using a hemocytometer.
Intact cardiomyocytes in suspension. To assess M-phase, intact cardiomyocytes were isolated by fixation-digestion. The solution containing the stained cells was then transferred to 8-well chambered cover glass (400 μl/well). After the cells were settled down to the bottom of the chambers, the number of mono/bi/multinucleated cardiomyocytes were counted with a fluorescence microscope, and the percentage of mono/bi/multinucleated cardiomyocytes was calculated. To quantify the proportion of H3P-positive cardiomyocytes, the concentration of stained cardiomyocytes in suspension (Ccardiomyocytes) was first measured using a hemocytometer. The cell suspension (400 μl) was then transferred to a well of a chamber slide, and the total number of H3P-positive cardiomyocytes (HH3P+) inside the well was counted with a TiE epifluorescence microscope. The proportion of the H3P-positive cardiomyocytes (PH3P+) was calculated using the following formula: […]
Heart sections: To determine S-phase, BrdU (40 μg/g body) was administered to P7 ICR mice and the hearts were resected at P8, fixed, and cryosectioned at 15 μm thickness. From each heart, four heart sections at a distance of 300 μm were selected and imaged by tile scanning with a Nikon A1R confocal microscope. The total number of BrdU-positive cardiomyocytes at the selected heart sections was counted. The total area of the selected heart sections was measured by Fiji software. The density of BrdU-positive cardiomyocytes (cells/mm^2) in the hearts was calculated using the following equation: […]
Intact cardiomyocytes in suspension. Cardiomyocytes were isolated from fresh or frozen (human or mouse) ventricle myocardium using the fixation-digestion method, followed by immunostaining as described above. The cells were then imaged and quantified with a Nikon A1R microscope for mono/bi/multi-nucleation.

CC(C)NCC(O)COc1cccc2ccccc12 (centres unmarked) [propranolol, 1-naphthalen-1-yloxy-3-(propan-2-ylamino)propan-2-ol]
fewer cardiomyocytes undergoing cytokinesis failure than PBS-treated pups (at P8): 13.6% | additional cardiomyocytes predicted to be generated by enabling completion of cytokinesis (at P8, back-of-the-envelope calculation from endowment of PBS-treated pups at P4): 0.22×10^6 cardiomyocytes | propranolol-induced increase of endowment between P4 and P8 (treated minus PBS) (calculated from the counts): 0.18×10^6 cardiomyocytes | heart weight (newborn mice, 2 i.p. injections per day, FIG. 16A, 16B): not changed | increase of cardiomyocyte endowment (newborn mice, at P4, 10 μg/g, 2 i.p. injections per day): 22% | increase of cardiomyocyte endowment (newborn mice, at P8, 2 i.p. injections per day, 12H): 30% | cardiomyocyte cell cycle entry (quantified by BrdU uptake) (newborn mice, at P8, FIG. 12E): without a change | progression to M-phase (quantified by H3P-staining) (newborn mice, at P8, FIG. 12F): without a change | decrease of the proportion of binucleated cardiomyocytes (newborn mice, treatment from P1 to P4, 10 μg/g, 2 i.p. injections per day, FIG. 12C): 21% | decrease of the proportion/formation of binucleated cardiomyocytes (newborn mice, treatment from P1 to P8, 2 i.p. injections per day (propranolol 10 μg/g; alprenolol 10 μg/g, 40 μg/g), FIG. 12C, 12G): 17% | increase of cardiomyocyte endowment between P4 and P8 in treated pups (propranolol-treated pups, from counts): 0.35×10^6 cardiomyocytes
